Assay results from ChEMBL document CHEMBL4190385, “Benzofuran-pyran hybrids: A new class of potential bone anabolic agents” (Bioorg Med Chem Lett, 2018).
Active and inactive are the calls of the source. The rule behind the calls is not given here.

Columns and labels:
Calvarial osteoblast [1] = assay: Cytotoxicity in rat calvarial osteoblasts assessed as reduction in cell viability at 1 pM to 1 uM incubated for 48 hrs by MTT assay; type: cell-based
[2] = Increase in BMP2 mRNA expression in Sprague-Dawley rat bone marrow stromal cells at 10 nM incubated for 7 days hrs by qPCR method; type: functional
[3] = Increase in Runx-2 mRNA expression in Sprague-Dawley rat bone marrow stromal cells at 10 nM incubated for 7 days hrs by qPCR method; type: functional
Rattus norvegicus [4] = species on record: Rattus norvegicus; assay: Stimulation of mineralization in Sprague-Dawley rat bone marrow stromal cells assessed as increase in calcium nodules at 1 uM incubated for 18 days hrs by Alizarin red S staining based photography; type: functional
Calvarial osteoblast [5] = assay: Increase in Runx-2 mRNA expression in rat calvarial osteoblasts at 10 nM incubated for 72 hrs by qPCR method; type: functional
[6] = Increase in BMP2 mRNA expression in Sprague-Dawley rat bone marrow stromal cells at 1 uM incubated for 7 days hrs by qPCR method; type: functional
Calvarial osteoblast [7] = assay: Increase in COL1 mRNA expression in rat calvarial osteoblasts at 10 nM incubated for 72 hrs by qPCR method; type: functional
Calvarial osteoblast [8] = assay: Stimulation of osteoblast differentiation in rat calvarial osteoblasts assessed as increase in ALP activity at 1 pM to 100 uM using p-nitrophenylphosphate substrate incubated for 48 hrs by colorimetry; type: functional, cell-based
Calvarial osteoblast [9] = assay: Stimulation of mineralization in rat calvarial osteoblasts assessed as increase in calcium nodules at 10 nM by Alizarin red S staining based photography; type: functional, cell-based
Rattus norvegicus [10] = species on record: Rattus norvegicus; assay: Stimulation of mineralization in Sprague-Dawley rat bone marrow stromal cells assessed as increase in calcium nodules at 10 nM incubated for 18 days hrs by Alizarin red S staining based photography; type: functional
Calvarial osteoblast [11] = assay: Stimulation of osteoblast differentiation in rat calvarial osteoblasts assessed as increase in ALP activity at 100 nM using p-nitrophenylphosphate substrate incubated for 48 hrs by colorimetry; type: functional, cell-based
Calvarial osteoblast [12] = assay: Increase in BMP2 mRNA expression in rat calvarial osteoblasts at 10 nM incubated for 72 hrs by qPCR method; type: functional
[13] = Increase in Osx mRNA expression in Sprague-Dawley rat bone marrow stromal cells at 10 nM incubated for 7 days hrs by qPCR method; type: functional
Calvarial osteoblast [14] = assay: Stimulation of mineralization in rat calvarial osteoblasts assessed as increase in calcium nodules at 1 uM by Alizarin red S staining based photography; type: functional, cell-based
Calvarial osteoblast [15] = assay: Stimulation of mineralization in rat calvarial osteoblasts assessed as increase in calcium nodules at 100 pM by Alizarin red S staining based photography; type: functional, cell-based
Calvarial osteoblast [16] = assay: Stimulation of osteoblast differentiation in rat calvarial osteoblasts assessed as increase in ALP activity at 1 uM using p-nitrophenylphosphate substrate incubated for 48 hrs by colorimetry; type: functional, cell-based
Calvarial osteoblast [17] = assay: Stimulation of mineralization in rat calvarial osteoblasts assessed as increase in calcium nodules at 10 pM by Alizarin red S staining based photography; type: functional, cell-based

SMILES	Activity (Calvarial osteoblast [1])	Activity (Calvarial osteoblast [8])	Activity (Calvarial osteoblast [9])	Activity (Calvarial osteoblast [15])	other results
COc1ccc(C(=O)c2cc3cc(C4C(C#N)=C(N)OC5=C4C(=O)CC(C)(C)C5)cc(C)c3o2)cc1 (centres undefined)	Non-Toxic	Active	Active	–	fold change (FC) [2]: 2.8; fold change (FC) [3]: 2; Activity (Rattus norvegicus [4]): Active; fold change (FC) (Calvarial osteoblast [5]): 2.4; fold change (FC) [6]: 1.8; fold change (FC) (Calvarial osteoblast [7]): 1.8; Activity (Rattus norvegicus [10]): Active; Activity (Calvarial osteoblast [11]): Active; fold change (FC) (Calvarial osteoblast [12]): 2.2; fold change (FC) [13]: 3
Cc1ccc(C(=O)c2cc3cc(C4C(C#N)=C(N)OC5=C4C(=O)CC(C)(C)C5)cc(C(C)(C)C)c3o2)cc1 (centres undefined)	Non-Toxic	Active	–	–	Activity (Calvarial osteoblast [14]): Active
CCc1cc(C2C(C#N)=C(N)OC3=C2C(=O)CC(C)(C)C3)cc2cc(C(=O)c3ccc(OC)cc3)oc12 (centres undefined)	Non-Toxic	Active	–	inactive	–
Cc1ccc(C(=O)c2cc3cc(C4C(C#N)=C(N)OC5=C4C(=O)CC(C)(C)C5)cc(C)c3o2)cc1 (centres undefined)	Non-Toxic	Active	inactive	–	Activity (Calvarial osteoblast [16]): Active
COc1ccc(C(=O)c2cc3cc(C4C(C#N)=C(N)OC5=C4C(=O)CC(C)(C)C5)cc(C(C)(C)C)c3o2)cc1 (centres undefined)	Non-Toxic	Active	–	inactive	–
CC1(C)CC(=O)C2=C(C1)OC(N)=C(C#N)C2c1cc(C(C)(C)C)c2oc(C(=O)c3ccc(Cl)cc3)cc2c1 (centres undefined)	Non-Toxic	Active	–	–	Activity (Calvarial osteoblast [17]): inactive
